Test results reported in ChEMBL document CHEMBL2375211, “2-methoxyjuglone induces apoptosis in HepG2 human hepatocellular carcinoma cells and exhibits in vivo antitumor activity in a H22 mouse hepatocellular carcinoma model” (J Nat Prod, 2013).

Legend:
[1] = tested on: H22; experiment: Antitumor activity against mouse H22 cells allografted in Kunming mouse assessed as decrease in weight of tumor mass at 20 mg/kg/day, ip administered 8 days measured after 10 days relative to control; format: functional; set-up: scale not given: the % may be the effect or the level left; settings: route intraperitoneal
[2] = tested on: Mus musculus; experiment: Toxicity in Kunming mouse allografted with mouse H22 cells assessed as decrease in body weight at 20 mg/kg/day, ip measured every day for 8 days; format: organism-based; set-up: route intraperitoneal; settings: in vivo, 192 h

O=c1[nH]cc(F)c(=O)[nH]1 [FLUOROURACIL]
Activity [1]: 81%
Activity [2]: Toxic
